In article PMC6151660 (Molecules : A Journal of Synthetic Chemistry and Natural …, 2017):

Test system: M. tuberculosis moxifloxacin resistant mutants (G88C, A90V, D94G in gyrase A) and H37Rv
Type: cell-based, Mycobacterium tuberculosis

| SMILES | activity in fluoroquinolone resistant strains | growth inhibition compared with moxifloxacin |
| --- | --- | --- |
| Cc1cc(=O)oc2cc(OCCN3CCN(Cc4ccc(Br)cc4)CC3)ccc12 [CM12] | maintained potency in all evaluated strains | growth inhibition in similar ranges to moxifloxacin |
| Cc1c(C#N)c(=O)oc2cc(OCCN3CCN(Cc4ccc(Br)cc4)CC3)ccc12 [CM14] | maintained potency in all evaluated strains | growth inhibition in similar ranges to moxifloxacin |
